Measurements published in PubChem BioAssay AID1794816.

Molecular target: Solute carrier family 22 member 4 (Homo sapiens) (UniProt Q9H015)
Experiment: SLC22A4 substrate-evoked membrane depolarization, dose response, membrane potential dye, HEK-293 overexpressing cells (AID 1794816)
Conditions: HEK-293 SLC22A4 OE, FLIPR membrane potential dye

Chain of Solute carrier family 22 member 4 (Homo sapiens) (Q9H015 whole entry, looked up): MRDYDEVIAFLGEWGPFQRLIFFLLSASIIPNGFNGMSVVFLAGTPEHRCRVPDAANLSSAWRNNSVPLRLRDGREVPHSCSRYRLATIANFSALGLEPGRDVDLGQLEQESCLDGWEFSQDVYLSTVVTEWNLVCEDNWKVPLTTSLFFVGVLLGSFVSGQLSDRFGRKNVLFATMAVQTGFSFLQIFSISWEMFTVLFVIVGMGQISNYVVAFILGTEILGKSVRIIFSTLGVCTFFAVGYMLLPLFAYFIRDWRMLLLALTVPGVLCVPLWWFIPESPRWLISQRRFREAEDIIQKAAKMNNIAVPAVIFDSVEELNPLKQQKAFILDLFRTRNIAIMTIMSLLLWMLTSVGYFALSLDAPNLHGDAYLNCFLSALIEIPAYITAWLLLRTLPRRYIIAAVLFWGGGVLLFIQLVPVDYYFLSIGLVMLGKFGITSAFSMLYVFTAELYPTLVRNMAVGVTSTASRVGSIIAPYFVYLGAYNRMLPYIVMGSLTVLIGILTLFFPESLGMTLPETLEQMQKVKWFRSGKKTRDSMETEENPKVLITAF

EC50: 40 µM
SMILES: C[N+](C)(C)[C@@H](Cc1c[nH]c(=S)[nH]1)C(=O)[O-]
